Read-outs that look alike come from different tables or passages of the source.
Key:
plasma LysoPC level [1] = test: Change of plasma LysoPC level after oral ingestion in a fasted healthy subject (HPTLC assay of LysoPC); conditions: 600 mg alpha-GPC
Method: (§1) LysoPC from plasma, serum or blood was extracted in one step by a newly developed method and subsequently assayed by using HPTLC (high performance thin layer chromatography).
(§2) The extraction of 50 μl of sample each was effected using salt-assisted extraction. For this purpose, a ceramic sphere (3.4 mm, ceramic) was charged in a 2 ml twist-top vial, and then 50 μl of distilled water, 50 μl of sample, 192 μl of concentrated ammonium acetate solution, and 300 μl of acetonitrile/1-pentanol (2.5:1 v/v) were added. After closing, the vial is intensively shaken centrifugally using dual centrifugation (ZentriMix 380 R, from the company Hettich, Tuttlingen, Germany) at 2000 rpm and 20° C. for 4 min. Subsequently, the vials are centrifuged at 16,000 rpm for 10 min. From the upper phase, 200 μl is removed, transferred to a crimp-top vial with a microinsert, crimped, and sent to HPTLC.
(§3) For the determination of the LysoPC concentrations using HPTLC, five LysoPC standards (16, 40, 80, 120 and 160 μM LysoPC in acetonitrile/1-pentanol (2.5:1 v/v.) and up to 12 sample extracts were applied to a 20×10 cm silica gel plate using the automated applying device ATS4 (CAMAG, Switzerland). The volume applied is 6 μl each.
(§4) After the application and after a dwell time of five minutes to ensure uniform evaporation of the solvent, the plate is placed into a preconditioned DC chamber filled with 35 ml of chloroform/methanol/water (65:35:4 v/v) and 200 μl of 25% ammonia solution for 20 min. Within this period, a travelling distance of about 9 cm is reached. […] After cooling to room temperature again, the optical density of the LysoPC bands (Rf about 0.1) is determined using the evaluation unit (TLC Visualizer 2, CAMAG, Switzerland), and the LysoPC concentrations were evaluated by comparing with the calibration substances using the HPTLC software “visionCATS” (Camag, Switzerland). If the LysoPC value is determined, not directly from plasma, but from whole blood, then the value needs to be corrected by the respective hematocrit value and by a factor of 1.3. […]

[2] = system: septic shock (Gram positive and Gram negative); conditions: rat, cited from earlier work
[3] = Assaying the total amount of LysoPC in the body (distribution between plasma and deeper compartments); assay type: in vivo, human
Method: To the therapeutic approach for the treatment of pneumonias of different origins and of sepsis as described herein, the determination of the total amount of LysoPC in the body is essential. The latter could be determined by determining the LysoPC concentration in the plasma, which is in equilibrium with the deeper compartments. To this end, one subject was administered, on the one hand, a high amount of phospholipid from egg (Example 1 (Determination of Plasma LysoPC) and Example 2). The plasma volume was calculated, the increase of the LysoPC concentration was determined, and the plasma LysoPC level accompanying this concentration change was calculated. This LysoPC amount and its ratio to the amount taken up yields the distribution of the LysoPC equivalent taken up between the plasma and the deeper compartments, from which the total LysoPC amount in the body can be calculated. It was considered that 100% of the phospholipid is taken up as LysoPC.
In another experiment, a subject was administered a high amount (25 g) of pure triglyceride (Example 3). The plasma volume was calculated. The lowering of the LysoPC concentration because of the consumption of LysoPC for producing PC for the biosynthesis of chylomicrons was determined (One chylomicron contains about 5-10% PC as a ratio to the amount of triglyceride). The amount of plasma LysoPC involved in this concentration change was calculated. This amount of LysoPC and its ratio to the amount taken up yields the distribution of the LysoPC equivalent taken up between the plasma and the deeper compartments, from which the total LysoPC amount in the body can be calculated. It was considered that 100% of the plasma LysoPC was converted to PC.
From the results of Examples 2 and 3, the amount of LysoPC in deeper compartments could be estimated at about 95% of the total body LysoPCs, i.e., about 5% is present in the blood plasma.
On this basis, the amount of total body LysoPCs can be estimated to a minimum of 10 g. […]

[4] = system: production of antigen-specific antibodies; conditions: mice, administered simultaneously with various antigens; cited from earlier work
sepsis models = conditions: mice, 25 mg/kg LysoPC i.p., cited from earlier work
[5] = mice; cited from earlier work
E. coli = conditions: mice, cited from earlier work
albumin = albumin (Homo sapiens, UniProt P02768); conditions: cited from earlier work
[6] = squirrel monkeys; cited from earlier work
plasma LysoPC level [7] = conditions: human, in vivo
Method: as §1, §2, §3, §4

albumin, sequence (P02768 25-609): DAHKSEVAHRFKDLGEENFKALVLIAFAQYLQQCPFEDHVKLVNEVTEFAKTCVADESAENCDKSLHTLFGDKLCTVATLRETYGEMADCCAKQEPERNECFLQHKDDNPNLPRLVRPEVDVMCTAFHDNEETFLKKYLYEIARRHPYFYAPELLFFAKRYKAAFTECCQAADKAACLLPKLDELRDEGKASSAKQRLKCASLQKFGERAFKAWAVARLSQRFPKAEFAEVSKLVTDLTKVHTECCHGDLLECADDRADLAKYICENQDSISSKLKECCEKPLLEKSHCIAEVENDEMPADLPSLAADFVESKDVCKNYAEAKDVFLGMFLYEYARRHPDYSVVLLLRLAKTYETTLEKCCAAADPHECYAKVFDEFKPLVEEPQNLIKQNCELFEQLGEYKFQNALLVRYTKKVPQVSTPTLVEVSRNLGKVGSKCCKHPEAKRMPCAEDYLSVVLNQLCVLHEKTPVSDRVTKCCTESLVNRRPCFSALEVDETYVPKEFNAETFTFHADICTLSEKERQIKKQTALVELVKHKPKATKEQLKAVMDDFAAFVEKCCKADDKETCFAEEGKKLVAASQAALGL

## alpha-glycerophosphocholine [alpha-GPC]
Plasma LysoPC level [1]; rise within 30 min after the first hour, then constant until end (2 hours)
  increase of plasma LysoPC level: about 20%
Plasma LysoPC level [1]; starting level about 190 μM
  change of plasma LysoPC level in the first hour: did not change

## lyso-phosphatidylcholine [LysoPC]
[2]; accompanying the protecting effects
  IL1-β levels: reduction of the IL1-β levels
[2]; higher doses of up to 100 mg/kg
  effect of higher doses: incapable or even harmful
[2]; up to 10 mg/kg, i.v.
  effect on damage to the organs and dysfunctions: reduce the damage to the organs and dysfunctions significantly
[3]; for mean 300 μM and plasma volume about 3.5 liters (about 500 mg in plasma)
  amount of total body LysoPCs: about 10 g
[3]; from Examples 2 and 3
  proportion of total body LysoPC located in the blood plasma: 4-5%
[3]; healthy subjects, based on estimated total body half life of 2.5 hours
  daily conversion rate of LysoPC: about 50 g
[4]
  effect in the production of antigen-specific antibodies (adjuvant): identical to that of alum
Sepsis models
  bacterial clearance: improved
Sepsis models; from 0%
  survival, first sepsis model: 69%
  survival, second sepsis model: 40%
[5]
  LysoPC half life: about 4 hours
E. coli; E. coli sepsis, 20 mg/kg LysoPC s.c., from about 20%
  survival: 90%
E. coli; single injection
  duration of increased LysoPC level after a single injection: about 4 hours
albumin
  number of binding sites of albumin for LysoPC: 3-4
albumin; plasma
  share of plasma LysoPCs bound by albumin: about 80%
[6]
  LysoPC half life: 1.3 h

## triglycerides
Plasma LysoPC level [7]
  share of the consumed LysoPC amount (1700 mg) taken from the plasma: 3.9%
